In patent US9527869B2, “Indolizine derivatives as phoshoinositide 3-kinases inhibitors” (CHIESI FARMACEUTICI S.P.A., priority 2014, dated 2016):

Tests used:
Format in all cases: biochemical
PI3Kα = biological target: T1, PI3Kα (Homo sapiens, UniProt P42336); assay: In vitro determination of the PI3K enzyme inhibitory activity in the cell free assay (ADP-Glo Kinase Assay), PI3Kα; details: ATP 50 μM, read-out: PI3K alpha inhibition
T1 construct: purchased Millipore Ltd (Billerica, Mass.)
Method: (§1) In vitro Determination of the PI3K Enzyme Inhibitory Activity in the Cell Free Assay
(§2) Human recombinant proteins PI3Kα, PI3Kβ, PI3Kγ and PI3Kδ were purchased from Millipore Ltd (Billerica, Mass.). Compounds were dissolved at 0.5 mM in DMSO and were tested at different concentrations for their activity against PI3Ks using the ADP-Glo™ Kinase Assay (Promega, Madison Wis.) according to the manufacturer's instructions.
(§3) Briefly, the kinase reactions were performed in 384-well white plates (Greiner Bio-One GmbH, Frickenhausen). Each well was loaded with 0.1 μl of test compounds and 2.5 μl of 2× reaction buffer (40 mM Tris pH7.5, 0.5 mM EGTA, 0.5 mM Na3VO4, 5 mM β-glycerophosphate, 0.1 mg/ml BSA, 1 mM DTT), containing 50 μM PI and PS substrates (L-α-phosphatidylinositol sodium salt and L-α-phosphatidyl-L-serine, Sigma-Aldrich, St. Louis Mo.) and the PI3K recombinant proteins (PI3Kγ 0.25 ng/μl, PI3Kδ 1 ng/μl, PI3Kα 0.125 ng/μl, PI3Kβ 1 ng/μl).
(§4) The reactions were started by adding 2.5 μl of 2×ATP solution to each well (final concentrations: PI3Kγ ATP 30 μM; PI3Kδ ATP 80 μM; PI3KαATP 50 μM; PI3Kβ ATP 100 μM) and incubated for 60 min at room temperature. Subsequently, each kinase reaction was incubated for 40 min with 5 μl ADP-Glo™ Reagent, allowing depletion of unconsumed ATP. Then, the Kinase Detection Reagent (10 μl) was added in each well to convert ADP to ATP and to allow the newly synthesized ATP to be measured using a luciferase/luciferin reaction. Following 60 min incubation, the luminescence signal was measured using a Wallac EnVision® multilabel reader (PerkinElmer, Waltham Mass.).
(§5) Curve fitting and IC50 calculation were carried out using a four-parameter logistic model in XLfit (IDBS, Guilford, UK) for Microsoft Excel (Microsoft, Redmont, Wash.).

PI3Kβ = biological target: T2, PI3Kβ (Homo sapiens, UniProt P42338); assay: In vitro determination of the PI3K enzyme inhibitory activity in the cell free assay (ADP-Glo Kinase Assay), PI3Kβ; details: ATP 100 μM, read-out: PI3K beta inhibition
T2 construct: purchased Millipore Ltd (Billerica, Mass.)
Method: as §1, §2, §3, §4, §5

PI3Kγ = biological target: T3, PI3Kγ (Homo sapiens, UniProt P48736); assay: In vitro determination of the PI3K enzyme inhibitory activity in the cell free assay (ADP-Glo Kinase Assay), PI3Kγ; details: ATP 30 μM, read-out: PI3K gamma inhibition
T3 construct: purchased Millipore Ltd (Billerica, Mass.)
Method: as §1, §2, §3, §4, §5

PI3Kδ = biological target: T4, PI3Kδ (Homo sapiens, UniProt O00329); assay: In vitro determination of the PI3K enzyme inhibitory activity in the cell free assay (ADP-Glo Kinase Assay), PI3Kδ; details: ATP 80 μM, read-out: PI3K delta inhibition
T4 construct: purchased Millipore Ltd (Billerica, Mass.)
Method: as §1, §2, §3, §4, §5

T4 sequence (O00329 whole entry): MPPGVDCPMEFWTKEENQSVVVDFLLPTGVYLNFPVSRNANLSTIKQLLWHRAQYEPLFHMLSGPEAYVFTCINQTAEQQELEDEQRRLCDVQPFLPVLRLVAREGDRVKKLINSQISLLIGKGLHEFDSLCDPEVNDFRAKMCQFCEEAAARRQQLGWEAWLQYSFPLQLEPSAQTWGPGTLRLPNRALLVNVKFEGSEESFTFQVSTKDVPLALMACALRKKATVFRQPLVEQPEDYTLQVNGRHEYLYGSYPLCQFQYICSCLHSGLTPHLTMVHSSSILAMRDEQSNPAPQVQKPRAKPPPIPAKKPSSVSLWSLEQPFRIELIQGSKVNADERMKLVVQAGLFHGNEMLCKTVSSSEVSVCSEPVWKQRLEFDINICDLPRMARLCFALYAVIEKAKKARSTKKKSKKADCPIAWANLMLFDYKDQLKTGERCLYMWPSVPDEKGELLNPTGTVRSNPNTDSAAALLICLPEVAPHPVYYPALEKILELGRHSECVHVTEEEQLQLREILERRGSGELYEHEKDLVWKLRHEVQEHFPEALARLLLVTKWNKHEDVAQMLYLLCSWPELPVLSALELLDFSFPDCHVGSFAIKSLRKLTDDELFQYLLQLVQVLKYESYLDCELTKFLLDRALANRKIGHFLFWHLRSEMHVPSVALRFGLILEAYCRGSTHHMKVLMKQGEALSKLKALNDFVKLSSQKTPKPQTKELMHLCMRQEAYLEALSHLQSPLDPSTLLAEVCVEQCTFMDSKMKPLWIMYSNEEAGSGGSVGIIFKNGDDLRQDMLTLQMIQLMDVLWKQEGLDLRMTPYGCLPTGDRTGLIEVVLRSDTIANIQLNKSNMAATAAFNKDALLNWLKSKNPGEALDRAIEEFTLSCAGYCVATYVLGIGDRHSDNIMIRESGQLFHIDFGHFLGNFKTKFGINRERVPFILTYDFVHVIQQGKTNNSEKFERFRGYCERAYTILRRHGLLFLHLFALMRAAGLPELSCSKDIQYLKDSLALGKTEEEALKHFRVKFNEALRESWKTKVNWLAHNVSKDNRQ
T4 sequence (P27986 whole entry partner): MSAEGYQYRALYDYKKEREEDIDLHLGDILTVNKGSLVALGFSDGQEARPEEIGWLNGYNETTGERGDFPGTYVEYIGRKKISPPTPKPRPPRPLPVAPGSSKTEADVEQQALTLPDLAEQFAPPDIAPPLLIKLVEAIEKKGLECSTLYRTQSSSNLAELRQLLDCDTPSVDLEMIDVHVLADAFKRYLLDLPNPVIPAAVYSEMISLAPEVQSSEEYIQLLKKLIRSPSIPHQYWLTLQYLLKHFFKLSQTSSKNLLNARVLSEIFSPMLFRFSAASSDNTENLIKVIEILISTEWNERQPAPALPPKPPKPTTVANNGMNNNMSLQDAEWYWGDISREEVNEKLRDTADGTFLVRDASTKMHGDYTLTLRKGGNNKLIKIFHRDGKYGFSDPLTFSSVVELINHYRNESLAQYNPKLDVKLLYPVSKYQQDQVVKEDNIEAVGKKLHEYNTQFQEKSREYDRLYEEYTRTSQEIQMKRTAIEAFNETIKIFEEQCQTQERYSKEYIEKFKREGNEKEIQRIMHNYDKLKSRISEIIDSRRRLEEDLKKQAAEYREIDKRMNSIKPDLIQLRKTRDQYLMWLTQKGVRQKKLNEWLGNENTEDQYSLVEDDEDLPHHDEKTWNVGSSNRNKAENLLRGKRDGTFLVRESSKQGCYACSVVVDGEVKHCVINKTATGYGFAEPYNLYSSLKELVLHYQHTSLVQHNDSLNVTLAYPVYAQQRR
T3 sequence (P48736 whole entry): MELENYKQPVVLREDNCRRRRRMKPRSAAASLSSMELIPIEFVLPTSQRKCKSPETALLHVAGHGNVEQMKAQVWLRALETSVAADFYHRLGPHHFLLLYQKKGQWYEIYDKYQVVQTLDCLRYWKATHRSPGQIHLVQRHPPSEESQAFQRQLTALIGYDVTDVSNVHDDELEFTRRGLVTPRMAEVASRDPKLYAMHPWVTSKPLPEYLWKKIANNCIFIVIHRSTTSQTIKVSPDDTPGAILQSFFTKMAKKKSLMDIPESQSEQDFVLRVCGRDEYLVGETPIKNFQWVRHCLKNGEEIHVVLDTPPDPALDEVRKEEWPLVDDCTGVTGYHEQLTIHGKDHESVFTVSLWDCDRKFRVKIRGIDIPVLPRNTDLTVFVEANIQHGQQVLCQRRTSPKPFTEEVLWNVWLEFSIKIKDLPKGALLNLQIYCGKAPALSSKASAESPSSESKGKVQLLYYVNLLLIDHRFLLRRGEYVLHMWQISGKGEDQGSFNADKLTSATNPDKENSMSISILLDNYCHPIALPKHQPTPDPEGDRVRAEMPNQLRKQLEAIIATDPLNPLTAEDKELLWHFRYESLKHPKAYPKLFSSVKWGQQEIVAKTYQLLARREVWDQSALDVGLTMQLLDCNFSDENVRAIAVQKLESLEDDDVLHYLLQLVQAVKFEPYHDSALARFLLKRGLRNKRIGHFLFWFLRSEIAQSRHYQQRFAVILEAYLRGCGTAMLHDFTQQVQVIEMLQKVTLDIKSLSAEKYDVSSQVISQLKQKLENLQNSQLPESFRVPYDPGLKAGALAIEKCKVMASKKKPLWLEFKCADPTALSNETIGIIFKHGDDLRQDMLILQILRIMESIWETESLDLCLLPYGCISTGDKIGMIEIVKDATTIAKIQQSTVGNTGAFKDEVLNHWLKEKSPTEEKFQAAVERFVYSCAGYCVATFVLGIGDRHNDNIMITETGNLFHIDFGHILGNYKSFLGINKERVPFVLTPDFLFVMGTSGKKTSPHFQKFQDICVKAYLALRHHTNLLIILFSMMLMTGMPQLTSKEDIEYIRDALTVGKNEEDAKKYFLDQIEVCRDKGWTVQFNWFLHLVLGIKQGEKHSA
T2 sequence (P42338 whole entry): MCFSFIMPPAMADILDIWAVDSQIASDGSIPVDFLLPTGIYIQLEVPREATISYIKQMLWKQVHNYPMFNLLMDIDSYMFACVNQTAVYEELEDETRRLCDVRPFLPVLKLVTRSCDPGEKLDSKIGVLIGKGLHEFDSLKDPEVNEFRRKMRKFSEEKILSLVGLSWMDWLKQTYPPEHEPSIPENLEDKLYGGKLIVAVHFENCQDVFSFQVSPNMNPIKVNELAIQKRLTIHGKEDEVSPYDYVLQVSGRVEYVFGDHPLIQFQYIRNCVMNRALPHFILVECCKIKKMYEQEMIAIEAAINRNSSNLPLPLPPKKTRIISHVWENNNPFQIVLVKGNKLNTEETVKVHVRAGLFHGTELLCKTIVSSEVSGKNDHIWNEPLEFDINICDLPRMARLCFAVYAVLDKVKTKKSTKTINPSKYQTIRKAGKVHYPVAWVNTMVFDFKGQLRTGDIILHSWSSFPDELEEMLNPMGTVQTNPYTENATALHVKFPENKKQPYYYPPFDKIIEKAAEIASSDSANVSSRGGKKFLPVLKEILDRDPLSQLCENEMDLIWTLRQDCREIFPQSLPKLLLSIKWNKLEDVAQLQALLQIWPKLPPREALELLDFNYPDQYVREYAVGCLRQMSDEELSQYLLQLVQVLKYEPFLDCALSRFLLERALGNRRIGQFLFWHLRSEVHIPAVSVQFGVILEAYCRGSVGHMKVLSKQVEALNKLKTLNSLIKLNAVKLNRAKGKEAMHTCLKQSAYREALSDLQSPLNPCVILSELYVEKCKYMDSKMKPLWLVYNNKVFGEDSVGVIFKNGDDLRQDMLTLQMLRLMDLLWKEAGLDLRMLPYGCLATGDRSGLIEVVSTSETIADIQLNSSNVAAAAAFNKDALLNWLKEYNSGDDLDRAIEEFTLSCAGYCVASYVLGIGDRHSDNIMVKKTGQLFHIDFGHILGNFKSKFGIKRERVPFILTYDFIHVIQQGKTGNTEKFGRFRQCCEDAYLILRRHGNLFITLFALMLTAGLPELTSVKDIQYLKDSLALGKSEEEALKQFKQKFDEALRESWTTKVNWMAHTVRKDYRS
T2 sequence (P27986 whole entry partner): as the sequence (P27986 whole entry partner) above
T1 sequence (P42336 whole entry): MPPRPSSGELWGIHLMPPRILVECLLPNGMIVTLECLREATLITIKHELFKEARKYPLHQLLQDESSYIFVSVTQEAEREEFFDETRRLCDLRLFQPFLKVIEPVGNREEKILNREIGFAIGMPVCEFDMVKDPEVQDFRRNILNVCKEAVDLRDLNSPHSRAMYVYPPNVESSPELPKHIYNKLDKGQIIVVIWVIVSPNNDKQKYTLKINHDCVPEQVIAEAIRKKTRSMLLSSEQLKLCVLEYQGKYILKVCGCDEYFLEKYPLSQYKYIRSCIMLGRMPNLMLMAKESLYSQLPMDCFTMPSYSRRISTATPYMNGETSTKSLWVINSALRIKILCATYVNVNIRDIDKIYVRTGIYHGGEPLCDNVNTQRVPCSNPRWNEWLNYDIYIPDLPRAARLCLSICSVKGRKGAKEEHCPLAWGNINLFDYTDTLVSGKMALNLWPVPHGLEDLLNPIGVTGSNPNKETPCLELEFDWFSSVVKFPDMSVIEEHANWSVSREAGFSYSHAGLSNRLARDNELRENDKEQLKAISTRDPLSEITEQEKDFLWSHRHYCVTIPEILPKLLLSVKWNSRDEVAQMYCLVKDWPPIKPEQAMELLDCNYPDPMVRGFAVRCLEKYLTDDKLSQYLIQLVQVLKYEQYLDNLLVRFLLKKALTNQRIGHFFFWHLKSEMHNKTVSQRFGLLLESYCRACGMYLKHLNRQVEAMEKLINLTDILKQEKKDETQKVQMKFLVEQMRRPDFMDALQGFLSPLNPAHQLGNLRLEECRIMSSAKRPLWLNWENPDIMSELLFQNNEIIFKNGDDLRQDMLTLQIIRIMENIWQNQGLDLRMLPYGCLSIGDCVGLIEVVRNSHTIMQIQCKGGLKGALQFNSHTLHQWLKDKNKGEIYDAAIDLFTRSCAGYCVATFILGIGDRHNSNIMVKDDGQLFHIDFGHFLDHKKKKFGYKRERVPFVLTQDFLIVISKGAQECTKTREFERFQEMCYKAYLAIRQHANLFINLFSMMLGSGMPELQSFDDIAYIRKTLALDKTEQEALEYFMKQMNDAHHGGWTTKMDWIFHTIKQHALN
T1 sequence (P27986 whole entry partner): as the sequence (P27986 whole entry partner) above

SMILES | IC50 (PI3Kα) | IC50 (PI3Kβ) | IC50 (PI3Kγ) | IC50 (PI3Kδ)
C[C@@H](c1cc2ccccn2c1-c1ccccn1)n1nc(-c2cc(O)cc(F)c2)c2c(N)ncnc21 (single isomer, unassigned) [Example 81, 3-(4-amino-1-{1-[3-(pyridin-2-yl)indolizin-2-yl]ethyl}-1H-pyrazolo[3,4-d]pyrimidin-3-yl)-5-fluorophenol] | > 1 µM | > 1 µM | > 1 µM | 0.01 to 1 µM
N#Cc1c(N)ncnc1NCc1cc2ccccn2c1-c1ccccc1F [Example 25, 4-amino-6-({[3-(2-fluorophenyl)indolizin-2-yl]methyl}amino)pyrimidine-5-carbonitrile] | > 1 µM | > 1 µM | > 1 µM | 0.01 to 1 µM
N#Cc1c(N)ncnc1NCc1cc2ccccn2c1-c1ccccn1 [Example 23, 4-amino-6-({[3-(pyridin-2-yl)indolizin-2-yl]methyl}amino)pyrimidine-5-carbonitrile] | > 1 µM | > 1 µM | > 1 µM | 0.01 to 1 µM
C[C@H](c1c(C#N)c2ccccn2c1-c1cccc(CN(C)C)c1)n1nc(-c2cc(O)cc(F)c2)c2c(N)ncnc21 (single isomer, unassigned) [Example 127b, 2-{1-[4-amino-3-(3-fluoro-5-hydroxyphenyl)-1H-pyrazolo[3,4-d]pyrimidin-1-yl]ethyl}-3-{3-[(dimethylamino)methyl]phenyl}indolizine-1-carbonitrile] | > 1 µM | > 1 µM | > 1 µM | < 0.01 µM
CC(c1cc2ccccn2c1-c1ccc(CN2CCCC2)cn1)n1nc(-c2cc(O)cc(F)c2)c2c(N)ncnc21 (stereo not shown) [Example 113, 3-[4-amino-1-(1-{3-[5-(pyrrolidin-1-ylmethyl)pyridin-2-yl]indolizin-2-yl}ethyl)-1H-pyrazolo[3,4-d]pyrimidin-3-yl]-5-fluorophenol] | > 1 µM | 0.01 to 1 µM | > 1 µM | < 0.01 µM
CC(c1cc2ccccn2c1-c1ccccn1)n1nc(-c2ccc(F)c(O)c2)c2c(N)ncnc21 (stereo not shown) [Example 71, 5-(4-amino-1-{1-[3-(pyridin-2-yl)indolizin-2-yl]ethyl}-1H-pyrazolo[3,4-d]pyrimidin-3-yl)-2-fluorophenol] | > 1 µM | > 1 µM | 0.01 to 1 µM | 0.01 to 1 µM
CC(c1cc2ccccn2c1-c1ccccn1)n1nc(-c2ccccc2)c2c(N)ncnc21 (stereo not shown) [Example 60, 3-phenyl-1-{1-[3-(pyridin-2-yl)indolizin-2-yl]ethyl}-1H-pyrazolo[3,4-d]pyrimidin-4-amine] | > 1 µM | > 1 µM | > 1 µM | 0.01 to 1 µM
C[C@H](c1cc2ccccn2c1-c1ccn(CCN2CCOCC2)c(=O)c1)n1nc(-c2cc(O)cc(F)c2)c2c(N)ncnc21 (single isomer, unassigned) [Example 121a, 4-(2-{1-[4-amino-3-(3-fluoro-5-hydroxyphenyl)-1H-pyrazolo[3,4-d]pyrimidin-1-yl]ethyl}indolizin-3-yl)-1-[2-(morpholin-4-yl)ethyl]-1,2-dihydropyridin-2-one] | > 1 µM | > 1 µM | > 1 µM | 0.01 to 1 µM
Cc1ccc2cc(C(C)n3nc(-c4cc(O)cc(F)c4)c4c(N)ncnc43)c(-c3ccccn3)n2c1 (stereo not shown) [Example 87, 3-(4-amino-1-{1-[6-methyl-3-(pyridin-2-yl)indolizin-2-yl]ethyl}-1H-pyrazolo[3,4-d]pyrimidin-3-yl)-5-fluorophenol] | > 1 µM | 0.01 to 1 µM | > 1 µM | 0.01 to 1 µM
Cc1ccccc1-c1c(CNc2ncnc(N)c2C#N)cc2ccccn12 [Example 26, 4-amino-6-({[3-(2-methylphenyl)indolizin-2-yl]methyl}amino)pyrimidine-5-carbonitrile] | > 1 µM | > 1 µM | > 1 µM | 0.01 to 1 µM
Nc1ncnc2c1ncn2Cc1cc2ccccn2c1-c1ccccc1F [Example 6, 9-{[3-(2-fluorophenyl)indolizin-2-yl]methyl}-9H-purin-6-amine] | > 1 µM | > 1 µM | > 1 µM | > 1 µM
CC(c1cc2ccccn2c1-c1ccc(OCCC2CCN(C)CC2)nn1)n1nc(-c2cc(O)cc(F)c2)c2c(N)ncnc21 (stereo not shown) [Example 140, 3-{4-amino-1-[1-(3-{6-[2-(1-methylpiperidin-4-yl)ethoxy]pyridazin-3-yl}indolizin-2-yl)-ethyl]-1H-pyrazolo[3,4-d]pyrimidin-3-yl}-5-fluorophenol] | > 1 µM | 0.01 to 1 µM | > 1 µM | 0.01 to 1 µM

More lines, now with the values ahead:

IC50 (PI3Kα) | IC50 (PI3Kβ) | IC50 (PI3Kγ) | IC50 (PI3Kδ) | SMILES
> 1 µM | > 1 µM | > 1 µM | > 1 µM | Nc1ncnc2c1ncn2Cc1cc2ccccn2c1 [Example 9, 9-(indolizin-2-ylmethyl)-9H-purin-6-amine]
0.01 to 1 µM | 0.01 to 1 µM | 0.01 to 1 µM | 0.01 to 1 µM | Cc1c(C(C)n2nc(-c3cc(O)cc(F)c3)c3c(N)ncnc32)c(-c2ccccn2)n2ccccc12 (stereo not shown) [Example 89, 3-(4-amino-1-{1-[1-methyl-3-(pyridin-2-yl)indolizin-2-yl]ethyl}-1H-pyrazolo[3,4-d]pyrimidin-3-yl)-5-fluorophenol]
> 1 µM | > 1 µM | > 1 µM | > 1 µM | CC(NC(=O)c1nccnc1N)c1cc2ccccn2c1-c1ccccn1 (stereo not shown) [Example 54, 3-amino-N-{1-[3-(pyridin-2-yl)indolizin-2-yl]ethyl}pyrazine-2-carboxamide]
> 1 µM | > 1 µM | > 1 µM | 0.01 to 1 µM | N#Cc1c(N)ncnc1NCc1cc2ccccn2c1-c1cccc(F)c1 [Example 24, 4-amino-6-({[3-(3-fluorophenyl)indolizin-2-yl]methyl}amino)pyrimidine-5-carbonitrile]
> 1 µM | > 1 µM | > 1 µM | 0.01 to 1 µM | CC(c1cc2ccccn2c1-c1ccn(CCN(C)C)c(=O)c1)n1nc(-c2cc(O)cc(F)c2)c2c(N)ncnc21 (single isomer, unassigned) [Example 133a, 4-(2-{1-[4-amino-3-(3-fluoro-5-hydroxyphenyl)-1H-pyrazolo[3,4-d]pyrimidin-1-yl]ethyl}indolizin-3-yl)-1-[2-(dimethylamino)ethyl]-1,2-dihydropyridin-2-one]
> 1 µM | 0.01 to 1 µM | 0.01 to 1 µM | < 0.01 µM | CC(c1cc2ccccn2c1-c1ccccn1)n1nc(-c2cncc(O)c2)c2c(N)ncnc21 (stereo not shown) [Example 69, 5-(4-amino-1-{1-[3-(pyridin-2-yl)indolizin-2-yl]ethyl}-1H-pyrazolo[3,4-d]pyrimidin-3-yl)pyridin-3-ol]
0.01 to 1 µM | 0.01 to 1 µM | 0.01 to 1 µM | < 0.01 µM | C[C@@H](c1cc2ccccn2c1-c1ccccn1)n1nc(-c2cc(O)cc(F)c2)c2c(N)ncnc21 (single isomer, unassigned) [Example 80, 3-(4-amino-1-{1-[3-(pyridin-2-yl)indolizin-2-yl]ethyl}-1H-pyrazolo[3,4-d]pyrimidin-3-yl)-5-fluorophenol]
0.01 to 1 µM | 0.01 to 1 µM | 0.01 to 1 µM | < 0.01 µM | CC(c1cc2ccccn2c1-c1ccccn1)n1nc(-c2cc(O)cc(F)c2)c2c(N)ncnc21 (racemic) [Example 79, 3-(4-amino-1-{1-[3-(pyridin-2-yl)indolizin-2-yl]ethyl}-1H-pyrazolo[3,4-d]pyrimidin-3-yl)-5-fluorophenol]
0.01 to 1 µM | 0.01 to 1 µM | 0.01 to 1 µM | < 0.01 µM | C[C@H](c1c(C#N)c2ccccn2c1-c1cccc(CN(C)C)c1)n1nc(-c2cc(O)cc(F)c2)c2c(N)ncnc21 (single isomer, unassigned) [Example 127a, 2-{1-[4-amino-3-(3-fluoro-5-hydroxyphenyl)-1H-pyrazolo[3,4-d]pyrimidin-1-yl]ethyl}-3-{3-[(dimethylamino)methyl]phenyl}indolizine-1-carbonitrile]
0.01 to 1 µM | 0.01 to 1 µM | 0.01 to 1 µM | < 0.01 µM | CC(c1c(C#N)c2ccccn2c1-c1ccccn1)n1nc(-c2cc(O)cc(F)c2)c2c(N)ncnc21 (stereo not shown) [Example 126, 2-{1-[4-amino-3-(3-fluoro-5-hydroxyphenyl)-1H-pyrazolo[3,4-d]pyrimidin-1-yl]-ethyl}-3-(pyridin-2-yl)indolizine-1-carbonitrile]
